Experimental data from patent publication US4952580A, “Pesticidal polyhaloalkene derivatives” (priority 1988, dated 1990).
Like-named read-outs stand apart in the source and are kept apart here.

Assays:
root-knot nematode [1] = assay: Soil Mobility against root-knot nematode; type: in vivo, Meloidogyne incognita; settings: 336 h, Table 7a, 5% dust, 5 ppm, read-out: Percent Control
In short: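 Soil mobility of the nematicidal test material was evaluated by placing treated, nematode-infested soil in 8 cm plastic pots stacked above two or more pots of untreated infested soil, each containing a 10 cm^3 sand layer and filter paper discs. Fifteen cm of water was dripped through, pots drained 16-18 hours, then were planted with cucumber or tomato seedlings and scored for Percent Control.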

lesion nematode = assay: Lesion Nematode Test; type: in vivo; settings: read-out: Percent Control
In short: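 Run as the stunt nematode test but on pea seedlings; compounds applied as dust formulations (initial and residual activity) or acetone/water formulations (systemic activity), with untreated samples as reference. Percent control derived by formula.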

[2] = test system: root-knot nematode (Meloidogyne incognita); assay: Initial Root-Knot Nematicidal Activity; type: in vivo; settings: 336 h, read-out: Percent Control; for pest or weed control at 0.078 ppm: Table 2, Application Rate 0.078 ppm; for pest or weed control at 0.156 ppm: Table 2, Application Rate 0.156 ppm; for pest or weed control at 2.5 ppm: Table 2, Application Rate 2.5 ppm; for pest or weed control at 0.312 ppm: Table 2, Application Rate 0.312 ppm
In short: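 Compound incorporated into Meloidogyne incognita-infested soil at 10 ppm to 0.078 ppm, then planted with tomato or cucumber seedlings. Root galling scored two weeks after planting as a knot index and converted to percent control, given as averages.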

stunt nematode = assay: Stunt Nematode Test; type: in vivo
root-knot nematode [3] = assay: Systemic Activity (basipetal, foliar spray) against root-knot nematode; type: in vivo, Meloidogyne incognita; settings: 336 h, read-out: Percent Control; for pest or weed control at 2000 ppm: Table 8, rate 2000 ppm
In short: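 Tomato plants at 4-6 true leaves were foliar-sprayed with compound in water/acetone, soil covered, then kept 3 days at 25° C before soil inoculation with nematodes. After about two weeks, root galling versus untreated controls was scored as Knot Index and Percent Control.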

root-knot nematode [4] = assay: Residual Root-Knot Nematicidal Activity; type: in vivo, Meloidogyne incognita; settings: Table 3a, 5% dust, 5 ppm, read-out: Percent Control
In short: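 Soil received 5% dust formulation at 5 and 10 ppm test compound and was held in a greenhouse, then infested with root-knot nematode eggs and larvae at 1, 2 and 4 weeks post-treatment. Cucumber or tomato seedlings were planted and scored about two weeks after infestation for Knot Index and Percent Control.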

cyst nematode = assay: Cyst Nematode Test; type: in vivo; settings: Table 6; rate 5 ppm; read-out: Percent Control
Protocol: Compounds of this invention were tested as follows for nematicidal and anthelmintic activity as dust formulations (initial and residual activity) and as acetone/water formulations (systemic activity). The formulations are described above.
The procedures was substantially the same as described in the stunt nematode test except soybean seedlings were used. "Percent Control" (Table 6 appended) is as defined in the stunt nematode test results.

[5] = test system: cucumber or tomato seedling; assay: Phytotoxicity noted in Soil Mobility test; type: in vivo; set-up: key: *: Some phytotoxicity; settings: Table 7a, 5% dust, 5 ppm
Excerpt: The ability of nematicidal compounds of the invention to move through nematode-infested soil […] infested soil, and subsequently eluting the soil with 15 cm of water (equivalent to 15 cm of rainfall) into a series of two or more pots of untreated, but nematode-infested, soil. Specifically, the pots were 8 cm diameter plastic pots containing a 10 cm^3 layer of sand over a coarse grade filter paper disc. Sufficient soil was placed over the sand to fill the pots, and a second filter paper disc was placed over the soil. Each test compound-treated pot was nested over a series of two or more pots containing untreated, but nematode-infested soil, also containing sand filter paper discs as described for the treated soil pots. Fifteen cm of water was slowly dripped into the top pots and the pots were allowed to drain for 16-18 hours to remove excess water. The top filter of each pot was then removed and the pots were planted with a cucumber or tomato seedling. […] "Knot Index" and "Percent Control" are as defined in the initial root-knot nematode tests above.

corn seedling = assay: Phytotoxicity noted in Stunt Nematode Test; type: in vivo; set-up: key: *: Some phytotoxicity; settings: Table 4a; rate 5 ppm
Excerpt: The procedure was substantially the same as in the initial root-knot nematode tests described above except that rates of application of formulated compound were 2.5 and 5 ppm in soil containing a corn seedling, with subsequent inoculation of the soil with combined larvae and adult stunt nematodes. The samples were evaulated approximately four weeks after infestation. The results (Tables 4 and 4a appended) indicate good control at the test application rates as compared with untreated samples where no control was observed. "Percent control" means the difference between average population counts between untreated and treated samples, divided by average population count of untreated sample, multiplied by 100.

Caenorhabditis elegans = assay: C. Elegans Nematode Screening Test and Evaluation (in-vitro); settings: Caenorhabditis elegans
In short: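 Worms (10-15 per well) in buffer with E. coli food, ampicillin and mycostatin; compound added in DMSO, 2-3 replicates per rate. Incubated 5-6 days at 20° C. Population development scored against untreated wells, noting effects such as reduced egg hatch or molting disruption.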

[6] = Table 2, Application Rate 0.625 ppm
[7] = Table 2, Application Rate 1.25 ppm
[8] = 672 h, Table 4a; rate 5 ppm; read-out: Percent Control
[9] = 168 h, inoculation 1 week post-treatment
[10] = 336 h, inoculation 2 weeks post-treatment
[11] = 672 h, inoculation 4 weeks post-treatment

| SMILES | pest or weed control at 5 ppm (root-knot nematode [1]; BOTTOM container) [%] | pest or weed control at 5 ppm (root-knot nematode [1]; MIDDLE container) [%] | pest or weed control at 5 ppm (root-knot nematode [1]; TOP container) [%] | pest or weed control at 2.5 ppm (lesion nematode; Table 5, rate 2.5 ppm) [%] | pest or weed control at 0.078 ppm [2] [%] | pest or weed control at 0.156 ppm [2] [%] | pest or weed control at 0.625 ppm [2, 6] [%] | pest or weed control at 1.25 ppm [2, 7] [%] | pest or weed control at 2.5 ppm [2] [%] | pest or weed control at 5 ppm (stunt nematode; [8]) [%] | pest or weed control at 5 ppm (root-knot nematode [4]; [9]) [%] | pest or weed control at 5 ppm (root-knot nematode [4]; [10]) [%] | pest or weed control at 5 ppm (root-knot nematode [4]; [11]) [%] | pest or weed control at 5 ppm (cyst nematode) [%] | Some phytotoxicity ([5]; TOP container) | pest or weed control at 0.312 ppm [2] [%] | other results |
| --- | --- | --- | --- | --- | --- | --- | --- | --- | --- | --- | --- | --- | --- | --- | --- | --- | --- |
| CCCc1nnc(SCCC(F)=C(F)F)o1 [Compound 41, 2-propyl-5-(3,4,4-trifluoro-3-butenylthio)-1,3,4-oxadiazole] | 8 | 95 | 97 | 64 | 31 | 84 | 98 | 100 | 100 | 29 | 97 | 63 | 6 | 0 | * |  | pest or weed control at 2000 ppm (root-knot nematode [3]): 17%; Some phytotoxicity ([5]; MIDDLE container): * |
| FC(F)=C(F)CCSc1nnc(Cc2ccccc2)o1 [Compound 42, 2-phenylmethyl-5-(3,4,4-trifluoro-3-butenylthio)-1,3,4-oxadiazole] | 100 | 100 | 100 | 82 | 38 | 50 | 98 | 98 | 100 | 76 | 99 | 97 | 0 | 30 |  | 86 | Some phytotoxicity (corn seedling): *; pest or weed control at 2.5 ppm (lesion nematode): 73%; pest or weed control at 5 ppm (stunt nematode; 672 h; Table 4a; rate 5 ppm; read-out: Percent Control): 33% |
| FC(F)=C(F)CCSc1nnc(-c2cccc(Cl)c2)o1 [Compound 48, 2-(3-chlorophenyl)-5-(3,4,4-trifluoro-3-butenylthio)-1,3,4-oxadiazole] |  |  |  | 85 | 6 | 38 | 78 |  | 98 | 82 | 97 | 97 | 69 | 86 | * | 64 | pest or weed control at 0.625 ppm [2]: 87%; pest or weed control at 1.25 ppm [2]: 95%; pest or weed control at 2500 ppm (root-knot nematode [3]; Table 8, rate 2500 ppm): 33%; pest or weed control at 2000 ppm (root-knot nematode [3]; foliar): 50%; inhibition at 5 ppm (Caenorhabditis elegans; Table 9 screen, 5 ppm, read-out: Percent Inhibition of Reproduction): 100%; mortality at 5 ppm (Caenorhabditis elegans; Table 9 screen, 5 ppm, read-out: Percent Mortality): 88%; mortality at 5 ppm (Caenorhabditis elegans; Table 10 evaluation, 5 ppm, read-out: Percent Mortality): 100%; inhibition at 1.25 ppm (Caenorhabditis elegans; Table 10 evaluation, 1.25 ppm, read-out: Percent Inhibition of Reproduction): 17%; mortality at 1.25 ppm (Caenorhabditis elegans; Table 10 evaluation, 1.25 ppm, read-out: Percent Mortality): 0%; inhibition at 2.5 ppm (Caenorhabditis elegans; Table 10 evaluation, 2.5 ppm, read-out: Percent Inhibition of Reproduction): 25%; mortality at 2.5 ppm (Caenorhabditis elegans; Table 10 evaluation, 2.5 ppm, read-out: Percent Mortality): 0% |
